Test results from ChEMBL document CHEMBL3352047, “Hybrids of phenylsulfonylfuroxan and coumarin as potent antitumor agents” (J Med Chem, 2014).
One block for each compound: values may come before it. Activity calls are given as the source filed them. The rule behind the calls is not given here.

Legend:
[1] = Antiproliferative activity against human A2780/CDDP cells after 48 hrs by MTT assay
A549 = assay: cells; conditions: Homo sapiens, A549, 48 h
HeLa = assay: cells; conditions: Homo sapiens, 48 h
HUVEC [2] = assay: cells; conditions: Homo sapiens, 48 h
Description: Antiproliferative activity against HUVEC after 48 hrs by MTT assay

A2780 [3] = assay: Antiproliferative activity against human A2780 cells after 48 hrs by MTT assay; conditions: A2780, 48 h
[4] = Antiproliferative activity against human T29 cells after 48 hrs by MTT assay; conditions: T29, 48 h
MDA-MB-231 [5] = assay: Antiproliferative activity against human MDA-MB-231 cells after 48 hrs by MTT assay; conditions: MDA-MB-231, 48 h
MDA-MB-231 [6] = assay: Antiproliferative activity against gemcitabine-resistant human MDA-MB-231 cells after 48 hrs by MTT assay; conditions: MDA-MB-231, 48 h
A2780 [7] = assay: Induction of nitric oxide generation in human A2780 cells at 100 to 1000 nM after 1 hr by DAF-FM DA staining-based assay; type: functional, cell-based
A2780 [8] = assay: Induction of nitric oxide generation in human A2780 cells at 100 uM after 150 mins by Griess assay; type: functional
A2780 [9] = assay: Antitumor activity against human A2780 cells xenografted in BALB/C nude mouse at 15 mg/kg, ip administered once every 3 days measured on day 15 relative to vehicle-treated control; type: functional; conditions: route intraperitoneal, read-out: TGI
HUVEC [10] = assay: Antiangiogenic activity against HUVEC assessed as disruption of tubule formation at 100 nM after overnight incubation by matrigel assay; type: functional, cell-based; conditions: Homo sapiens
A2780 [11] = assay: Induction of apoptosis in human A2780 cells assessed as early apoptotic cells at 20 to 80 nM after 24 hrs by annexin-V/propidium iodide staining-based flow cytometry; type: functional
A2780 [12] = assay: Induction of apoptosis in human A2780 cells assessed as increase in Bax protein expression after 24 hrs by Western blotting analysis; type: functional, cell-based
A2780 [13] = assay: Induction of apoptosis in human A2780 cells assessed as reduction in Bcl-2 protein expression after 24 hrs by Western blotting analysis; type: functional, cell-based
HUVEC [14] = assay: Antiangiogenic activity against HUVEC assessed as suppression of tubule formation at 10 nM after overnight incubation by matrigel assay; type: functional, cell-based; conditions: Homo sapiens
[15] = Acute toxicity in KM mouse assessed as survival at 200 mg/kg, ip measured on day 14 relative to vehicle-treated control; type: organism-based; design: dose 200 mg/kg, route intraperitoneal; conditions: in vivo
A2780 [16] = assay: Antitumor activity against human A2780 cells xenografted in BALB/C nude mouse assessed as loss in tumor weight at 15 to 30 mg/kg, ip administered once every 3 days measured after 15 days relative to vehicle-treated control; type: functional, organism-based
A2780 [17] = assay: Cell cycle arrest in human A2780 cells assessed as reduction at S phase at 20 to 80 nM after 24 hrs by propidium iodide staining-based flow cytometry; type: functional
A2780 [18] = assay: Anticlonogenic activity against human A2780 cells assessed as inhibition of colony formation of cells at 5 to 20 nM after 48 hrs by gentian violet staining-based assay; type: functional, cell-based
A2780 [19] = assay: Induction of apoptosis in human A2780 cells assessed as increase in p53 phosphorylation at 100 to 1000 nM after 24 hrs by Western blotting analysis; type: functional, cell-based
[20] = Acute toxicity in KM mouse assessed as survival at 500 mg/kg, ip measured on day 14 relative to vehicle-treated control; type: organism-based; design: dose 500 mg/kg, route intraperitoneal; conditions: in vivo
A2780 [21] = assay: Induction of apoptosis in human A2780 cells assessed as late apoptotic cells at 20 to 80 nM after 24 hrs by annexin-V/propidium iodide staining-based flow cytometry; type: functional
A2780 [22] = assay: Cell cycle arrest in human A2780 cells assessed as accumulation at G2/M phase after 24 hrs by propidium iodide staining-based flow cytometry; type: functional
A2780 [23] = assay: Cell cycle arrest in human A2780 cells assessed as reduction at G0/G1 phase at 20 to 80 nM after 24 hrs by propidium iodide staining-based flow cytometry; type: functional
[24] = Antiproliferative activity against human SKOV3 cells after 48 hrs by MTT assay; conditions: SK-OV-3, 48 h
A2780 [25] = assay: Induction of nitric oxide generation in human A2780 cells after 1 hr by DAF-FM DA staining-based assay; type: functional, cell-based
A2780 [26] = assay: Cell cycle arrest in human A2780 cells assessed as accumulation at G2/M phase at 20 to 80 nM after 24 hrs by propidium iodide staining-based flow cytometry; type: functional
MDA-MB-231 [27] = assay: Anticlonogenic activity against human gemcitabine-resistant human MDA-MB-231 cells assessed as inhibition of colony formation of cells at 20 to 80 nM after 48 hrs by gentian violet staining-based assay; type: functional, cell-based
T29 = assay: Induction of nitric oxide generation in human T29 cells at 100 uM after 150 mins by Griess assay; type: functional, cell-based
[28] = Acute toxicity in ip dosed KM mouse; type: organism-based; conditions: in vivo
A2780 [29] = assay: Induction of nitric oxide generation in human A2780 cells at 500 nM after 24 hrs by Griess assay in presence of hemoglobin; type: functional, cell-based
[30] = Antiproliferative activity against cisplatin-resistant human SKOV3 cells after 48 hrs by MTT assay; conditions: SK-OV-3, 48 h
A2780 [31] = assay: Anticlonogenic activity against human A2780 cells assessed as inhibition of colony formation of cells after 48 hrs by gentian violet staining-based assay; type: functional, cell-based
[32] = Acute toxicity in KM mouse assessed as survival at 300 mg/kg, ip measured on day 14 relative to vehicle-treated control; type: organism-based; design: dose 300 mg/kg, route intraperitoneal; conditions: in vivo
[33] = Acute toxicity in KM mouse assessed as survival at 225 mg/kg, ip measured on day 14 relative to vehicle-treated control; type: organism-based; design: dose 225 mg/kg, route intraperitoneal; conditions: in vivo
A2780 [34] = assay: Induction of apoptosis in human A2780 cells assessed as increase in PARP-1 cleavage at 100 to 1000 nM after 24 hrs by Western blotting analysis; type: functional, cell-based
[35] = Acute toxicity in KM mouse assessed as survival at 250 mg/kg, ip measured on day 14 relative to vehicle-treated control; type: organism-based; design: dose 250 mg/kg, route intraperitoneal; conditions: in vivo
MDA-MB-231 [36] = assay: Anticlonogenic activity against human gemcitabine-resistant human MDA-MB-231 cells assessed as inhibition of colony formation of cells after 48 hrs by gentian violet staining-based assay; type: functional, cell-based
A2780 [37] = assay: Antitumor activity against human A2780 cells xenografted in BALB/C nude mouse at 30 mg/kg, ip administered once every 3 days measured on day 15 relative to vehicle-treated control; type: functional; conditions: route intraperitoneal, read-out: TGI
[38] = Acute toxicity in KM mouse assessed as survival at 275 mg/kg, ip measured on day 14 relative to vehicle-treated control; type: organism-based; design: dose 275 mg/kg, route intraperitoneal; conditions: in vivo
A2780/CDDP = assay: Induction of nitric oxide generation in human A2780/CDDP cells at 500 nM after 24 hrs by Griess assay in presence of hemoglobin; type: functional, cell-based

- IC50 (A549): 1020 nM
- IC50 (HeLa): 510 nM
- IC50 (A2780 [3]): 950 nM
SMILES: Cc1cc(=O)oc2cc(N(C)CCOc3no[n+]([O-])c3S(=O)(=O)c3ccccc3)ccc12
- IC50 [1]: 2380 nM
- IC50 (HUVEC [2]): 890 nM

- IC50 (A549): 5450 nM
- IC50 (HeLa): 830 nM
- IC50 (A2780 [3]): 3330 nM
SMILES: CCc1cc(=O)c2ccc(OCCOc3no[n+]([O-])c3S(=O)(=O)c3ccccc3)cc2o1
- IC50 [1]: 2880 nM
- IC50 (HUVEC [2]): 1030 nM

- IC50 (A2780 [3]): > 2000 nM
SMILES: Cc1cc(=O)oc2cc(O)ccc12 [HYMECROMONE]
- IC50 [4]: > 2000 nM

- IC50 (A549): 2350 nM
- IC50 (HeLa): 1450 nM
- IC50 (A2780 [3]): 880 nM
SMILES: O=S(=O)(c1ccccc1)c1no[n+]([O-])c1S(=O)(=O)c1ccccc1
- IC50 [1]: 890 nM
- IC50 (HUVEC [2]): 4330 nM

- IC50 (A549): 8860 nM
- IC50 (HeLa): 4550 nM
- IC50 (A2780 [3]): 110 nM
SMILES: O=c1ccc2ccc(Oc3no[n+]([O-])c3S(=O)(=O)c3ccccc3)cc2o1
- IC50 [1]: 3440 nM
- IC50 (HUVEC [2]): 6750 nM

- IC50 (A549): 3290 nM
- IC50 (HeLa): > 20000 nM
- IC50 (A2780 [3]): 130 nM
SMILES: CCc1cc(=O)c2ccc(Oc3no[n+]([O-])c3S(=O)(=O)c3ccccc3)cc2o1
- IC50 [1]: 2990 nM
- IC50 (HUVEC [2]): 3350 nM

- IC50 (A549): 1440 nM
- IC50 (HeLa): 1990 nM
- IC50 (A2780 [3]): 2450 nM
SMILES: Cc1cc(=O)oc2cc(NCCOc3no[n+]([O-])c3S(=O)(=O)c3ccccc3)ccc12
- IC50 [1]: 5450 nM
- IC50 (HUVEC [2]): 3040 nM

- IC50 (A549): 400 nM
- IC50 (HeLa): 190 nM
- IC50 (A2780 [3]): 290 nM
SMILES: CCc1cc(=O)c2ccc(OCCCOc3no[n+]([O-])c3S(=O)(=O)c3ccccc3)cc2o1
- IC50 [1]: 890 nM
- IC50 (HUVEC [2]): 350 nM

- IC50 (MDA-MB-231 [5]): 25 nM
- IC50 (MDA-MB-231 [6]): > 10000 nM
SMILES: Nc1ccn([C@@H]2O[C@H](CO)[C@@H](O)C2(F)F)c(=O)n1 [GEMCITABINE]

SMILES: CCOC(=O)N1CCN(/[N+]([O-])=N/Oc2ccc([N+](=O)[O-])cc2[N+](=O)[O-])CC1
- IC50 [1]: 1050 nM
- Activity (A2780 [7]): Active
- IC50 (A549): 1260 nM
- Activity (A2780 [8]): 48 µM
- IC50 (HeLa): 3560 nM
- IC50 (HUVEC [2]): 5390 nM
- IC50 (A2780 [3]): 630 nM

SMILES: Cc1cc(=O)oc2cc(OCCOc3no[n+]([O-])c3S(=O)(=O)c3ccccc3)ccc12
- IC50 [1]: 62 nM
- inhibition in vivo at 15 mg/kg (A2780 [9]): 55.8%
- Activity (HUVEC [10]): Active
- IC50 [4]: 14 nM
- Activity (A2780 [11]): 2.5%
- Activity (A2780 [12]): Dose-dependent effect
- Activity (A2780 [13]): Dose-dependent effect
- Activity (HUVEC [14]): Active
- survival at 14 day [15]: 100%
- Activity (A2780 [16]): Active
- Activity (A2780 [7]): Active
- IC50 (A549): 24 nM
- Activity (A2780 [8]): 97 µM
- Activity (A2780 [17]): Active
- inhibition (A2780 [18]): Active
- Activity (A2780 [19]): Active
- survival at 14 day [20]: 10%
- Activity (A2780 [21]): 2.5%
- Activity (A2780 [22]): Dose-dependent effect
- Activity (A2780 [23]): Active
- IC50 [24]: 83 nM
- Activity (A2780 [25]): Dose-dependent effect
- IC50 (HeLa): 53 nM
- Activity (A2780 [26]): 64.9%
- inhibition (MDA-MB-231 [27]): Active
- Activity (T29): Active
- LD50 [28]: 264 mg/kg
- Activity (A2780 [29]): inactive
- IC50 [30]: 140 nM
- inhibition (A2780 [31]): Dose-dependent effect
- survival at 14 day [32]: 30%
- survival at 14 day [33]: 90%
- Activity (A2780 [34]): Active
- survival at 14 day [35]: 60%
- inhibition (MDA-MB-231 [36]): Dose-dependent effect
- IC50 (HUVEC [2]): 34 nM
- IC50 (A2780 [3]): 14 nM
- inhibition in vivo at 30 mg/kg (A2780 [37]): 65.5%
- survival at 14 day [38]: 40%
- Activity (A2780/CDDP): inactive
